# What was measured:
# AB12 cells = assay: Annexin V/PI assay (necrosis), flow cytometry; assay type: cell-based, mouse; details: AB12, 5 × IC50 (72 h), 100 min
# Description: centrifugation of the cells (300 × g, 5 min), 5 ml of fresh RPMI was introduced, and the cells were seeded at a density of 5 x 10^5 cells per well into Cellstar 6-well plates (Greiner Bio-One) (1 ml per well). J774 macrophages (70-80% confluence in a T75 flask) were detached by scraping, centrifuged (300 × g, 5 min). The medium was substituted with 1 ml of DMEM containing CellTracker Green CMFDA (1 μM) and the J774 macrophages were stained at 37°C for 30 minutes. Following centrifugation of the J774 macrophages (300 × g, 5 min), 5 ml of fresh DMEM was introduced, and the macrophages were seeded into a 100 cm2 petri dish (SPL Life Sciences, Korea). After 24 h, the media in AB12 cells was replaced with 1 ml of fresh RPMI containing compounds of interest at equipotent concentration of 5 × IC50 and incubated for 100 minutes. After removing the drug-containing media, the cells were trypsinized (0.5 ml), neutralized with 1 ml of RPMI, centrifuged (300 × g, 5 min) and counted. From each sample, 2 × 10^5 AB12 cells were seeded into Cellstar 6-well plates (Greiner Bio-One) (1 ml per well).
# 2 × 10^5 J774 macrophages were detached from a petri dish by scraping and added to AB12 cells into 6-well plates. AB12 cells and J774 macrophages were co-incubated for 16 h at 37°C and 5% CO2, detached by scraping, centrifuged (300 × g, 5 min), and the pellets were resuspended in PBS for immediate analysis using a CytoFLEX Flow Cytometer (Beckman Coulter, USA). The percentage of phagocytosis was determined by calculating the number of double-positive macrophages (Q2) over the total number of macrophages (Q2 + Q3). Dot plots […]
# analysis of the flow cytometry data. […]
# concentrations for 100 min at 37 °C. […] Cell death was evaluated by flow cytometry using a CytoFLEX Flow Cytometer equipped with a 488 nm laser and a 638 nm laser (Beckman Coulter, Brea, CA, USA). The cells were excited by the 488 nm laser, and fluorescence emissions were detected at 525/40 nm for FITC (Annexin V) and at 610/20 nm for ECD (PI).
# The percentage of necrosis was determined by calculating the sum of cells in Q1 and Q2. […]
# [1] = tested on: AB12 cells in BALB/c mice; assay: In vivo vaccination model; parameters: species or system mouse; details: n = 8
# Description: Initially, AB12 cells underwent pretreatment with varying concentrations of Au(III) complexes, and the induced cell death and release of desired ICD biomarkers were monitored over time. Upon reaching a cell death rate of 65%–75%, BALB/c mice (n = 8) were subcutaneously injected in the left flank with a vaccine containing 3 × 10^5 of live/dying/dead cells, while the vehicle group received injections of PBS. Seven days postvaccine administration, the immunized mice were rechallenged by inoculating the same number of live AB12 cells (without any prior treatment) into the right flanks (Figure 5A). The progression of tumor growth on the right flanks was monitored using a caliper.
# AB12 cells were seeded into Cellstar 24-well plates (Greiner Bio-One) at a density of 1.8 × 104
# cells/ml (1 ml per well) and allowed to grow exponentially for 16 hours. Subsequently, the
# medium was replaced with 1 ml of fresh medium containing compounds of interest at
# predetermined concentrations (with a minimum of 4 wells per treatment condition). These
# concentrations were selected to induce 65-75% cell death.
# Subsequently, the culture
# medium was aspirated, and the cells were washed twice with 1 mL of PBS. The cell
# concentration was adjusted to 3 × 10^5 cells (including dead/dying/live cells) per 100 μL of PBS,
# and the ratio of dead/live cells was assessed using the Invitrogen Countess 3 cell counter. In
# the subsequent experiment, BALB/c mice (8 mice per group) were subcutaneously injected
# with 0.1 mL of AB12 cells (3 × 10^5 cells/mL, including dead/dying/live cells) or the
# corresponding vehicle (PBS) on the left flank. Tumor growth was monitored daily.
# After 7 days, the mice were subcutaneously injected with
# 0.1 mL of AB12 cells (3 × 10^5 cells/mL, live cells) on the right flank. Regular measurements
# of body weights and tumor sizes were taken. Mice that developed palpable tumors were
# euthanized for further analysis.
# HMGB1 in AB12 cells = assay: HMGB1 detection, flow cytometry; assay type: cell-based, mouse; details: AB12, 5 × IC50 (72 h), 240 min
# Description: AB12 cells were seeded into Cellstar 6-well plates (Greiner Bio-One) at a density of 5 × 10^5 cells per well (2 ml per well). The cells were allowed to resume exponential growth for 16 h. […] After the treatment, the supernatant was collected in 2 mL microtubes. The wells were washed with 1 ml of PBS, trypsinized with 300 μL of trypsin at 37 °C for 5 min and combined with the corresponding supernatant. The cell suspension was then centrifuged (300  g, 10 min), washed with PBS (2  1 ml). […] RT, washed once with 1 mL PBS and centrifuged (500  g, 10 min). Next, cells were incubated with HMGB1 antibody (Catalogue number: 3935, Cell Signaling Technology) at 4 °C overnight (1:500 dilution in PBS) and washed with 1 ml of PBS (500  g, 10 min). […] The cells were excited by the 488 nm laser, and fluorescence S24 page 25: emission was detected at 525/40 nm for FITC (CRT). The resulting dot blots were acquired from 10,000 events and quantified using Flowjo software (version 10.8.0, BD Biosciences, San Jose, CA, USA).
SMILES,necrosis level (Q1 + Q2) (AB12 cells),mice that developed tumors by Day 51 [1],HMGB1 expression (in words) (HMGB1 in AB12 cells)
F[P-](F)(F)(F)(F)F.c1cc[c]2c(c1)Nc1cccc[n+]1[Au-]21[S]C(=[N+]2CCCCCC2)[S]1 (stereo not drawn) [5G],6%–8%,–,–
"Nc1nc2[nH]cc(CCc3ccc(C(=O)N[C@@H](CCC(=O)O)C(=O)O)cc3)c2c(=O)[nH]1 [Pemetrexed, pemetrexed, reference compound]",–,four of the eight,significant increase in HMGB1 expression

# Reference: PMC11887451, “Leveraging Immunogenic Cell Death to Enhance the Immune Response against Malignant Pleural Mesothelioma Tumors” (Journal of the American Chemical Society, 2025)
